Where a name gives a salt, the structure may show the parent alone.
Columns and labels:
Type in all cases: cell-based
[1] = test system: Bacillus subtilis NCTC 9372; test: Agar plate multi-point inoculation, colour
[2] = test system: Serratia marcescens NCTC 10211; test: Agar plate multi-point inoculation, colour
[3] = test system: clinical isolates of E. coli
[4] = test system: Steptococcus pyogenes NCTC 8306; test: Agar plate multi-point inoculation, colour
[5] = test system: Providencia rettgeri NCTC 7475; test: Agar plate multi-point inoculation, colour
E. faecium NCTC 7171 = test: Glucuronide screen, broth containing FAC; conditions: E. faecium NCTC 7171, broth
E. faecalis NCTC 775 = test: Glucuronide screen, broth containing FAC; conditions: E. faecalis NCTC 775, broth
E. cloacae = test: Glucuronide screen, broth containing FAC
[6] = test system: Listeria monocytogenes NCTC 11994; test: Agar plate multi-point inoculation, colour
Shigella sonnei = test: Broth medium with ONPG (dual chromogenic system); conditions: combination with ONPG
Method: (§1) The two indoxyl glucuronides used produce insoluble endpoints following hydrolysis, as does the CPS ID 3 medium. It was therefore necessary to test these two substrates on agar plates. In contrast, DHN-β-D-glucuronide (12) gives a much more soluble endpoint best suited to liquid media and was therefore tested in a broth medium. The broth was prepared using proteose peptone (2 g), NaCl (1 g) and FAC (100 mg) in DI water (180 mL). This mixture was autoclaved and cooled to room temperature before being dispensed into bijoux (100×1.8 mL). DHN-β-D-glucuronide CHA salt (12a) (60 mg) was dissolved in water (20 mL) and filtered to sterilize before being aseptically dispensed into successive bijoux (0.2 mL) containing the broth solution. The broth/substrate solutions were then inoculated with bacterial suspensions made up to 0.5 McFarland standard (2 μL per bijoux). X-β-D-glucuronide CHA salt (Glycosynth Ltd, Warrington, UK) (10 mg) was dissolved in NMP (200 μL). […]
(§2) Because many E. coli produce both β-D-glucuronidase and β-D-galactosidase, DHN-β-D-glucuronide (12a) was tested as in the broth medium described above but in the presence of ONPG (at a concentration of 1.5 g/L). […] The colour of these solutions of mixed chromogens could be very readily distinguished with the unaided eye from the yellow colour of those strains, such as E. cloacae, that produced β-D-galactosidase only. […]

[7] = test system: E. coli expressing both β-D-glucuronidase and β-D-galactosidase; test: Broth medium with ONPG (dual chromogenic system); conditions: broth with FAC, ONPG 1.5 g/L
Method: as §1, §2

[8] = test system: Pseudomonas aeruginosa NCTC 10662; test: Agar plate multi-point inoculation, colour
[9] = test system: Morganella morganii 462403 (wild); test: Agar plate multi-point inoculation, colour; conditions: Columbia agar, FAC 500 mg/L, substrate 300 mg/L, 37° C. 18 h in air
[10] = test system: Staphylococcus aureus (MRSA) NCTC 11939; test: Agar plate multi-point inoculation, colour; conditions: Columbia agar, FAC 500 mg/L, substrate 300 mg/L, 37° C. 18 h in air
[11] = test system: Burkholderia cepacia 1222; test: Agar plate multi-point inoculation, colour; conditions: Columbia agar, FAC 500 mg/L, substrate 300 mg/L, 37° C. 18 h in air
[12] = test system: Enterobacter cloacae NCTC 11936; test: Agar plate multi-point inoculation, colour
[13] = test system: Enterococcus faecium NCTC 7171; test: Agar plate multi-point inoculation, colour
[14] = test system: Citrobacter freundii NCTC 9750 or 46262; test: Agar plate multi-point inoculation, colour; conditions: Columbia agar, FAC 500 mg/L, substrate 300 mg/L, 37° C. 18 h in air
[15] = test system: Staphylococcus epidermidis NCTC 11047; test: Agar plate multi-point inoculation, colour
[16] = test system: Candida albicans ATCC 90028; conditions: Columbia agar, FAC 500 mg/L, substrate 300 mg/L, 37° C. 18 h in air
[17] = test system: Enterococcus faecalis NCTC 775; test: Agar plate multi-point inoculation, colour
[18] = test system: Salmonella typhimurium NCTC 74; test: Agar plate multi-point inoculation, colour
[19] = test system: Staphylococcus aureus NCTC 6571; test: Agar plate multi-point inoculation, colour
[20] = test system: Escherichia coli NCTC 10418; test: Agar plate multi-point inoculation, colour
[21] = test system: Yersinia enterocolitica NCTC 11176; test: Agar plate multi-point inoculation, colour; conditions: Columbia agar, FAC 500 mg/L, substrate 300 mg/L, 37° C. 18 h in air
[22] = test system: Candida glabrata NCPF 3943; test: Agar plate multi-point inoculation, colour

O=C(O)C1OC(Oc2cc3ccccc3cc2O)C(O)C(O)C1O [Compound 12a, DHN-β-D-glucuronide CHA Salt]
Colour [1]: − | Colour [2]: − | % Sensitivity [3]: 82% | Colour [3]: Purple and − | Negative strains [3]: 18 | Positive strains [3]: 82 | Colour [4]: − | Colour [5]: − | Colour (E. faecium NCTC 7171): − | Colour (E. faecalis NCTC 775): − | Colour (E. cloacae; E. cloacae 260329R, broth): − | Colour (E. cloacae; E. cloacae NCTC 11936, broth): − | Colour [6]: − | detection of β-D-glucuronidase activity (Shigella sonnei): able to detect | colour of solutions [7]: purple-brown solutions | Colour [8]: − | Colour [9]: − | Colour [10]: − | Colour [11]: − | Colour [12]: − | Colour [13]: − | Colour [14]: − | Colour [15]: − | Colour [16]: − | Colour [17]: − | Colour [18]: − | Colour [19]: − | Colour [20]: ++ | hydrolysis of substrate (judged by colour) [20]: strong colour | Colour [21]: − | Colour [22]: −

From patent publication US9938562B2, “Naphthalene derived chromogenic enzyme substrates” (Glycosynth Limited, priority 2013, dated 2018)
